Experimental data as given in PMC8371902, “Phase 1 study of M2698, a p70S6K/AKT dual inhibitor, in patients with advanced cancer” (Journal of Hematology & Oncology, 2021).
“Also recorded” adds a separate entry of the source.

Test system: patients with advanced metastatic cancer
Text: In this phase 1 study, dose escalation was followed by expansion cohorts of once-daily, oral M2698 in continuous 21-day cycles. Primary objectives were to determine the maximum tolerated dose (MTD), dose-limiting toxicities (DLTs), and recommended phase 2 dose (RP2D). Secondary objectives were to assess safety and tolerability, pharmacokinetics (PK, including food effect) and antitumor activity. Pharmacodynamic biomarker assessments were exploratory. Treatment was discontinued if there was disease progression, toxicity or consent withdrawal.
In Part 1, M2698 monotherapy was investigated in a dose escalation with a food effect cohort. In Part 2, M2698 was investigated as monotherapy (expansion cohort) to further characterize safety, tolerability and pharmacokinetics, and assess antitumor activity in PAM + patients without confounding markers (exploratory).
Dose escalation analysis included all patients who experienced a DLT and those who received ≥ 80% of planned M2698 doses in cycle 1 without experiencing a DLT. Safety analysis included all patients who received ≥ 1 dose of M2698. PK analysis included all patients who received ≥ 1 dose of M2698 and had measurable plasma concentrations. Dose proportionality was tested using the power model (linear regression approach on the log -transformed scale).

NC(=O)c1cccc2c(N[C@H](CN3CCC3)c3ccc(Cl)c(C(F)(F)F)c3)ncnc12 [M2698]
M2698-related TEAE: Vomiting (Overall N=62): 2 (3.2) n (%) | M2698-related TEAE: White blood cell count decreased (Overall N=62): 1 (1.6) n (%) | Maximum tolerated dose (MTD) of M2698 (daily): no formal MTD was determined; also recorded: no MTD was reached | Number of DLTs observed (dose escalation): two | Grade >3 TEAE: GGT increased (in vivo): 4.8% | Grade >3 TEAE: abdominal pain (in vivo): 3.2% | Grade >3 TEAE: acute kidney injury (in vivo): 4.8% | Grade >3 TEAE: acute respiratory failure (in vivo): 3.2% | Grade >3 TEAE: anemia (in vivo): 9.7% | Grade >3 TEAE: blood AP increased (in vivo): 3.2% | Grade >3 TEAE: blood creatine phosphokinase increased (in vivo): 3.2% | Grade >3 TEAE: cardiac arrest (in vivo): 3.2% | Grade >3 TEAE: constipation (in vivo): 3.2% | Grade >3 TEAE: disease progression (in vivo): 3.2% | Grade >3 TEAE: hypertension (in vivo): 3.2% | Grade >3 TEAE: hyponatremia (in vivo): 6.5% | Grade >3 TEAE: nausea (in vivo): 3.2% | Grade >3 TEAE: pleural effusion (in vivo): 3.2% | Grade >3 TEAE: pneumonia (in vivo): 4.8% | Grade >3 TEAE: septic shock (in vivo): 3.2% | Grade >3 TEAE: small intestinal obstruction (in vivo): 3.2% | Grade >3 TEAE: urinary tract infection (in vivo): 4.8% | Grade >3 TEAE: vomiting (in vivo): 4.8% | M2698-related TEAE abnormal dreams (in vivo): 9.7% | M2698-related TEAE diarrhea (in vivo): 11.3% | M2698-related TEAE fatigue (in vivo): 6.5% | M2698-related TEAE nausea (in vivo): 19.4% | M2698-related TEAE tremor (in vivo): 6.5% | M2698-related TEAE: Abnormal dreams (in vivo): 6 (9.7) number of patients (percent) | M2698-related TEAE: Diarrhea (in vivo): 7 (11.3) number of patients (percent) | M2698-related TEAE: Fatigue (in vivo): 4 (6.5) number of patients (percent) | M2698-related TEAE: Nausea (in vivo): 12 (19.4) number of patients (percent) | M2698-related TEAE: Tremor (in vivo): 4 (6.5) number of patients (percent) | M2698-related TEAEs: patients with ≥1 event (in vivo): 34 (54.8) number of patients (percent) | Patients with M2698-related TEAEs (in vivo): 54.8% | Patients with M2698-related TEAEs grade ≥ 3 (in vivo): 12.9% | Serious TEAE related to M2698 (in vivo): 5 (8.1) number of patients (percent) | Serious TEAEs (in vivo): 26 (41.9) number of patients (percent) | Serious TEAEs attributed to M2698 (in vivo): 8.1 % of patients | TEAE leading to permanent discontinuation of any trial treatment (in vivo): 6 (9.7%) number of patients (percent) | TEAE leading to temporary discontinuation of M2698 (in vivo): 29 (46.8%) number of patients (percent) | TEAE related to M2698 (in vivo): 34 (54.8%) number of patients (percent) | TEAE related to M2698, grade ≥ 3 (in vivo): 8 (12.9%) number of patients (percent) | TEAE: ALT increased (in vivo): 4 (6.5) n (%) | TEAE: AST increased (in vivo): 2 (3.2) n (%) | TEAE: Abdominal pain (in vivo): 5 (8.1) n (%) | TEAE: Abnormal dreams (in vivo): 6 (9.7) n (%) | TEAE: Anemia (in vivo): 13 (21.0) n (%) | TEAE: Anxiety (in vivo): 6 (9.7) n (%) | TEAE: Arthralgia (in vivo): 1 (1.6) n (%) | TEAE: Asthenia (in vivo): 2 (3.2) n (%) | TEAE: Back pain (in vivo): 2 (3.2) n (%) | TEAE: Blood AP increased (in vivo): 4 (6.5) n (%) | TEAE: Blood bilirubin increased (in vivo): 2 (3.2) n (%) | TEAE: Blood creatinine increased (in vivo): 7 (11.3) n (%) | TEAE: Chills (in vivo): 2 (3.2) n (%) | TEAE: Constipation (in vivo): 14 (22.6) n (%) | TEAE: Cough (in vivo): 11 (17.7) n (%) | TEAE: Decreased appetite (in vivo): 9 (14.5) n (%) | TEAE: Dehydration (in vivo): 7 (11.3) n (%) | TEAE: Depression (in vivo): 3 (4.8) n (%) | TEAE: Diarrhea (in vivo): 17 (27.4) n (%) | TEAE: Disease progression (in vivo): 2 (3.2) n (%) | TEAE: Dizziness (in vivo): 9 (14.5) n (%) | TEAE: Dry mouth (in vivo): 3 (4.8) n (%) | TEAE: Dry skin (in vivo): 0 (0) n (%) | TEAE: Dyspnea (in vivo): 4 (6.5) n (%) | TEAE: Edema peripheral (in vivo): 1 (1.6) n (%) | TEAE: Fatigue (in vivo): 21 (33.9) n (%) | TEAE: GGT increased (in vivo): 7 (11.3) n (%) | TEAE: Gait disturbance (in vivo): 2 (3.2) n (%) | TEAE: Headache (in vivo): 3 (4.8) n (%) | TEAE: Hyperglycemia (in vivo): 1 (1.6) n (%) | TEAE: Hypertension (in vivo): 4 (6.5) n (%) | TEAE: Hypoalbuminemia (in vivo): 5 (8.1) n (%) | TEAE: Hypocalcemia (in vivo): 4 (6.5) n (%) | TEAE: Hypokalemia (in vivo): 4 (6.5) n (%) | TEAE: Hypomagnesemia (in vivo): 2 (3.2) n (%) | TEAE: Hyponatremia (in vivo): 5 (8.1) n (%) | TEAE: Insomnia (in vivo): 2 (3.2) n (%) | TEAE: Muscle spasms (in vivo): 0 (0) n (%) | TEAE: Muscular weakness (in vivo): 1 (1.6) n (%) | TEAE: Nasopharyngitis (in vivo): 1 (1.6) n (%) | TEAE: Nausea (in vivo): 23 (37.1) n (%) | TEAE: Neutropenia (in vivo): 1 (1.6) n (%) | TEAE: Pain in extremity (in vivo): 3 (4.8) n (%) | TEAE: Pyrexia (in vivo): 11 (17.7) n (%) | TEAE: Rash (in vivo): 1 (1.6) n (%) | TEAE: Tremor (in vivo): 5 (8.1) n (%) | TEAE: Urinary tract infection (in vivo): 5 (8.1) n (%) | TEAE: Vision blurred (in vivo): 3 (4.8) n (%) | TEAE: Vomiting (in vivo): 12 (19.4) n (%) | TEAE: Weight decrease (in vivo): 4 (6.5) n (%) | TEAEs (in vivo): 61 (98.4%) number of patients (percent) | TEAEs, grade ≥ 3 (in vivo): 36 (58.1%) number of patients (percent) | TEAE leading to death (no deaths considered related to M2698, trastuzumab or tamoxifen): 6 (9.7) number of patients (percent) | Recommended phase 2 dose (RP2D) of M2698 (once daily (QD)): 240 mg | Psychiatric event attributed to M2698 (one patient, 320 mg, cycle 2): grade 3 psychosis | Grade 2–3 gastrointestinal adverse events requiring dose reduction (patients with prolonged exposure to M2698 ≥ 320 mg): 19.4%
